{
  "source": "ChEMBL document CHEMBL6092154",
  "about": "“Design, synthesis, and evaluation of a novel TRAIL-activated HDAC6 inhibitor for the treatment of pulmonary fibrosis” (Bioorg Med Chem, 2024)",
  "key": {"[1]": {"test": "Toxicity against bleomycin-induced pulmonary fibrosis C57BL/6J mouse model assessed as effect on kidney morphological changes at 25 to 50 mg/kg, ig administered daily via gavage and measured on day 14 by Hematoxylin-Eosin staining based analysis", "assay_type": "organism-based", "settings": "in vivo, po, 336 h, dose 25-50 mg/kg, time 14 day"}, "[2]": {"test": "Toxicity against silicosis C57BL/6J mouse model assessed as effect on spleen morphological changes at 50 mg/kg, ig administered daily via gavage and measured on day 28 by Hematoxylin-Eosin staining based analysis", "assay_type": "organism-based", "settings": "in vivo, po, 672 h, time 28 day"}, "[3]": {"target": "T1, Protein deacetylase HDAC6 (Homo sapiens) (UniProt Q9UBN7)", "T1 sequence (whole entry)": "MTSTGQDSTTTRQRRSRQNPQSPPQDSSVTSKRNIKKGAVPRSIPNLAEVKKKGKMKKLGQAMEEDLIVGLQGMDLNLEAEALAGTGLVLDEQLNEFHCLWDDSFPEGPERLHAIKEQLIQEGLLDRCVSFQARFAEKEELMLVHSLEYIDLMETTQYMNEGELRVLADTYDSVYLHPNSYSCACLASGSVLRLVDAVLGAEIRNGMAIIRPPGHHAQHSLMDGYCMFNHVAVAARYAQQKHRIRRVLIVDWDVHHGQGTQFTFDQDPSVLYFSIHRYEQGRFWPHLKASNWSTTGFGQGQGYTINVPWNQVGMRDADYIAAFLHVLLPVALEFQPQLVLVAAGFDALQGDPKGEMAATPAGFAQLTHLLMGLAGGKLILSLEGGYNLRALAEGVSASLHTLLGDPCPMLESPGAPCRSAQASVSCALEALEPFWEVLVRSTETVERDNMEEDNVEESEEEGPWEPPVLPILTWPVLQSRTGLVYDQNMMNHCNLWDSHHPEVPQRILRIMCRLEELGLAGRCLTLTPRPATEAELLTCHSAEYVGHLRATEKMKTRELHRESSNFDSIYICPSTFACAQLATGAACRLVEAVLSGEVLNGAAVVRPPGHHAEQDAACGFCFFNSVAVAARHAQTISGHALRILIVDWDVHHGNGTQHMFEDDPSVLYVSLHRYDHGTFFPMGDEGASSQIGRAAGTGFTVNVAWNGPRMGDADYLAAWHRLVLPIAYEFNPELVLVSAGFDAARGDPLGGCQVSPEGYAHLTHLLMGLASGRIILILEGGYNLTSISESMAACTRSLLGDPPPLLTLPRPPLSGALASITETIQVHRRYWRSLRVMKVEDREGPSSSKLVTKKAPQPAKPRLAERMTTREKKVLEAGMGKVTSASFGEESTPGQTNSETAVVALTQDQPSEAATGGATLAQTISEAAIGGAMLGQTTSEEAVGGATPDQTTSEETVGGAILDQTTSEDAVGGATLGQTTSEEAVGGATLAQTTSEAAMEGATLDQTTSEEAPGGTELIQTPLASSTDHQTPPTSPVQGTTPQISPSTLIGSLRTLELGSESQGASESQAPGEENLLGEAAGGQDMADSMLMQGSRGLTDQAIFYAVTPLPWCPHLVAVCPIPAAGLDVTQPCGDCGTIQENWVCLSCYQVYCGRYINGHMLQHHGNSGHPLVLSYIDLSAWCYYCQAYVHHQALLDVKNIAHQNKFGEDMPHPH", "test": "Inhibition of HDAC6 in human RPMI-8226 cells assessed as increase in acetylated histone H4 level at 0.25 to 1 uM incubated for 24 hrs by western blot analysis", "assay_type": "cell-based", "settings": "dose 0.25-1 µM"}, "[4]": {"target": "T2, Protein deacetylase HDAC6 (Homo sapiens, UniProt Q9UBN7)", "T2 sequence (Q9UBN7 whole entry)": "T1 sequence (whole entry)", "test": "Inhibition of HDAC6 (unknown origin) incubated for 30 mins by fluorometric analysis"}, "[5]": {"target": "T3, Protein deacetylase HDAC6 (Mus musculus) (UniProt Q9Z2V5)", "T3 sequence (whole entry)": "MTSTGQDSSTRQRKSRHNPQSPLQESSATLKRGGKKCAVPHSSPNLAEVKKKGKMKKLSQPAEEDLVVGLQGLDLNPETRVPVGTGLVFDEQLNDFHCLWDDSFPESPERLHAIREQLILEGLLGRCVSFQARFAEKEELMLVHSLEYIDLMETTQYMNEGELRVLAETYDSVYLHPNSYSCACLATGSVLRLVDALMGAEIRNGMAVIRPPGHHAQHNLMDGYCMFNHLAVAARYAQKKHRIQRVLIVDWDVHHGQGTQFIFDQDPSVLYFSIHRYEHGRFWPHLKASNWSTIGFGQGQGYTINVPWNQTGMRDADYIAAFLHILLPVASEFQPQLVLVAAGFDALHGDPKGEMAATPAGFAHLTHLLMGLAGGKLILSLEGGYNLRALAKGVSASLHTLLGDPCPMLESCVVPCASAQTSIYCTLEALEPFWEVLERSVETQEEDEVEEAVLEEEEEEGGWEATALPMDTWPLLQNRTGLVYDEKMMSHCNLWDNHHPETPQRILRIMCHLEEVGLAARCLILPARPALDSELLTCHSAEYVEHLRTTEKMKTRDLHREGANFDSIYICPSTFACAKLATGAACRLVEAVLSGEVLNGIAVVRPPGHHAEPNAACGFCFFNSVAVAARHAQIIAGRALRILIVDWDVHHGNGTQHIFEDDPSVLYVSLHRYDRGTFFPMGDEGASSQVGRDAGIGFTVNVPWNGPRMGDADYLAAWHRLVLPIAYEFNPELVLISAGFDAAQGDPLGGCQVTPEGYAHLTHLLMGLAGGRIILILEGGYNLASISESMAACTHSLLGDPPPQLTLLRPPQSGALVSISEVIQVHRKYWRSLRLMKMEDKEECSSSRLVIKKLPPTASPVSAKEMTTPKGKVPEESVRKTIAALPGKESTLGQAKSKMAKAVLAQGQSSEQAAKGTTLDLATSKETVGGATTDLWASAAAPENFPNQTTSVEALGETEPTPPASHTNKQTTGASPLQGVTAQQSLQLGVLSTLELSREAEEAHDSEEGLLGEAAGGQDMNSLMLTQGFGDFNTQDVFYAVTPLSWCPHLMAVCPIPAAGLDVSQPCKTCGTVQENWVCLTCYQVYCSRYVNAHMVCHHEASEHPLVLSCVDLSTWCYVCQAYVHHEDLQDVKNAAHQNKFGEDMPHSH", "test": "In vivo inhibition of HDAC6 in bleomycin-induced idiopathic pulmonary fibrosis C57BL/6J mouse model assessed as increase in acetylated alpha-tubulin level in lung at 25 mg/kg, ig administered via gavage and measured on day 14 by western blot analysis", "assay_type": "functional, organism-based", "settings": "time 14.0 day"}, "Histone deacetylase 2": {"target": "Histone deacetylase 2 (Homo sapiens, UniProt Q92769)", "sequence (Q92769 whole entry)": "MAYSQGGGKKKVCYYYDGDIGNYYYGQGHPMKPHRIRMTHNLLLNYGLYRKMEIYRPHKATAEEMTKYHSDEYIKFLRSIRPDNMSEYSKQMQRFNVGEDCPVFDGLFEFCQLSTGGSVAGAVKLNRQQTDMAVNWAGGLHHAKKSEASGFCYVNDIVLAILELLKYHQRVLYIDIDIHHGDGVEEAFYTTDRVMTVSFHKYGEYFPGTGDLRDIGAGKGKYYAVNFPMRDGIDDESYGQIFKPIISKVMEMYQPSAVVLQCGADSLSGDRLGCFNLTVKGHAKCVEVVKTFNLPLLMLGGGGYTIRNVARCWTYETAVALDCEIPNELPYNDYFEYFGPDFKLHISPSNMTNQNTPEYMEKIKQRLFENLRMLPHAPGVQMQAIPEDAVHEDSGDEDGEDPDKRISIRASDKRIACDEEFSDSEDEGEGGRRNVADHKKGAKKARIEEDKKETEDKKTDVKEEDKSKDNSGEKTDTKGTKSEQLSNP", "test": "Inhibition of HDAC2 (unknown origin) at 1 uM incubated for 30 mins by fluorometric analysis"}, "Histone deacetylase 3": {"target": "Histone deacetylase 3 (Homo sapiens, UniProt O15379)", "sequence (O15379 whole entry)": "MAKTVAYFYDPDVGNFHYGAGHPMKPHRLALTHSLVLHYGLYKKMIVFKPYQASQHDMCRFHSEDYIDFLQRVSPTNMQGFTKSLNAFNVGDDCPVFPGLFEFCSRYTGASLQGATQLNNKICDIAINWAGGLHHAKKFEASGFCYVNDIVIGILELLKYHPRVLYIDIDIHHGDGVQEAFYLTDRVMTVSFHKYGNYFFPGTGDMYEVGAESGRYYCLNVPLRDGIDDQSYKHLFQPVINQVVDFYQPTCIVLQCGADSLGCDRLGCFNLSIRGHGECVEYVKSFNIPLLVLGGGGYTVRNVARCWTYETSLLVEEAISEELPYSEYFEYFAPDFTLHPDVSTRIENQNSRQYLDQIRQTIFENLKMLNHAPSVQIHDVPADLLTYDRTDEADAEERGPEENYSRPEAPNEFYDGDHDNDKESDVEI", "test": "Inhibition of HDAC3 (unknown origin) incubated for 30 mins by fluorometric analysis"}, "Mus musculus": {"tested_on": "Mus musculus", "test": "Anti-pulmonary fibrosis activity in bleomycin-induced idiopathic pulmonary fibrosis C57BL/6J mouse model assessed as decrease in weight loss at 50 mg/kg, ig administered daily via gavage and measured for 14 days", "assay_type": "functional, organism-based", "settings": "time 14.0 day"}, "[6]": {"target": "T1, Protein deacetylase HDAC6 (Homo sapiens)", "test": "Inhibition of HDAC6 in human RPMI-8226 cells assessed as increase in acetylated alpha-tubulin level at 1 uM incubated for 24 hrs by western blot analysis", "assay_type": "cell-based"}},
  "note": "Activity calls are given as the source filed them. No cut-off for these calls is given here.",
  "data": [
    {"smiles": "O=C(NO)c1ccc(CN2C(=O)C3=C(CCN(Cc4cccc(Cl)c4)C3)N3CCN=C23)cc1", "values": [
      {"measurement": "Activity", "setting": "[1]", "value": "Non-toxic"},
      {"measurement": "Activity", "setting": "[2]", "value": "Non-toxic"},
      {"measurement": "inhibition", "setting": "[3]", "value": "Active"},
      {"measurement": "IC50", "setting": "[4]", "value": 42.9, "unit": "nM"},
      {"measurement": "inhibition", "setting": "[5]", "value": "inactive"},
      {"measurement": "inhibition", "setting": "Histone deacetylase 2", "value": 61.8, "unit": "%"},
      {"measurement": "IC50", "setting": "Histone deacetylase 3", "value": 1140, "unit": "nM"},
      {"measurement": "Activity", "setting": "Mus musculus", "value": "Active"},
      {"measurement": "inhibition", "setting": "[6]", "value": "Active; Intensity Of Increase Slightly Lower Than Positive Drug, Acy-1215"}
    ]}
  ]
}
